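1) Cells in 96-well plates. 2) Compound, 48 h, 5 concentrations. 3) Linear interpolation between surrounding doses. 4) Unreached endpoint = highest concentration. Here, GI50 denotes the concentration required for 50% inhibition of growth.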 Activity calls are given as the source filed them. Cut-off read from the data, not from the text of the source: active = GI50 up to about 1.1 µM and inactive = higher.
Assays:
Test in all cases: growth of human tumour cells (NCI), 48 h
MCF7 = test system: MCF7
786-0 = test system: 786-0
SR = test system: SR
KM12 = test system: KM12
SK-MEL-2 = test system: SK-MEL-2
DU-145 = test system: DU-145
T47D = test system: T47D
COLO 205 = test system: COLO 205
NCI/ADR-RES = test system: NCI/ADR-RES
RPMI-8226 = test system: RPMI-8226
OVCAR-5 = test system: OVCAR-5
LOX IMVI = test system: LOX IMVI
RXF 393 = test system: RXF 393
UACC-257 = test system: UACC-257
M14 = test system: M14
A549 = test system: A549
MOLT-4 = test system: MOLT-4
SNB-19 = test system: SNB-19
HL-60 = test system: HL-60
Hs-578T = test system: Hs-578T

SMILES: CCN(CC)CC1CN=C(N)O1 (stereo not given)
- GI50 (MCF7): > 100 µM (inactive)
- GI50 (786-0): > 100 µM (inactive)
- GI50 (SR): > 100 µM (inactive)
- GI50 (KM12): > 100 µM (inactive)
- GI50 (SK-MEL-2): > 100 µM (inactive)
- GI50 (DU-145): > 100 µM (inactive)
- GI50 (T47D): > 100 µM (inactive)
- GI50 (COLO 205): > 100 µM (inactive)
- GI50 (NCI/ADR-RES): > 100 µM (inactive)
- GI50 (RPMI-8226): > 100 µM (inactive)
- GI50 (OVCAR-5): > 100 µM (inactive)
- GI50 (LOX IMVI): > 100 µM (inactive)
- GI50 (RXF 393): > 100 µM (inactive)
- GI50 (UACC-257): > 100 µM (inactive)
- GI50 (M14): > 100 µM (inactive)
- GI50 (A549): > 100 µM (inactive)
- GI50 (MOLT-4): > 100 µM (inactive)
- GI50 (SNB-19): > 100 µM (inactive)

SMILES: Oc1nc(S)nc2c1CCCN2
- GI50 (786-0): > 100 µM (inactive)
- GI50 (SR): > 100 µM (inactive)
- GI50 (KM12): > 100 µM (inactive)
- GI50 (SK-MEL-2): > 100 µM (inactive)
- GI50 (COLO 205): > 100 µM (inactive)
- GI50 (RPMI-8226): > 100 µM (inactive)
- GI50 (OVCAR-5): > 100 µM (inactive)
- GI50 (LOX IMVI): > 100 µM (inactive)
- GI50 (RXF 393): > 100 µM (inactive)
- GI50 (UACC-257): > 100 µM (inactive)
- GI50 (M14): > 100 µM (inactive)
- GI50 (A549): > 100 µM (inactive)
- GI50 (MOLT-4): > 100 µM (inactive)
- GI50 (SNB-19): > 100 µM (inactive)
- GI50 (HL-60): > 100 µM (inactive)

SMILES: O=S(=O)(c1ccccc1)N1CN2CN(C1)CN(S(=O)(=O)c1ccccc1)C2
- GI50 (MCF7): > 100 µM (inactive)
- GI50 (786-0): > 100 µM (inactive)
- GI50 (SR): > 100 µM (inactive)
- GI50 (KM12): > 100 µM (inactive)
- GI50 (SK-MEL-2): > 100 µM (inactive)
- GI50 (DU-145): > 100 µM (inactive)
- GI50 (COLO 205): > 100 µM (inactive)
- GI50 (NCI/ADR-RES): > 100 µM (inactive)
- GI50 (RPMI-8226): > 100 µM (inactive)
- GI50 (OVCAR-5): > 100 µM (inactive)
- GI50 (LOX IMVI): > 100 µM (inactive)
- GI50 (RXF 393): 55.7 µM (inactive)
- GI50 (UACC-257): > 100 µM (inactive)
- GI50 (M14): > 100 µM (inactive)
- GI50 (A549): > 100 µM (inactive)
- GI50 (SNB-19): > 100 µM (inactive)
- GI50 (HL-60): 26.6 µM (inactive)

SMILES: C1OCC2S[C@@H]3COCO[C@@H]3C2O1 (stereo not given in full)
- GI50 (786-0): > 100 µM (inactive)
- GI50 (SR): > 100 µM (inactive)
- GI50 (KM12): > 100 µM (inactive)
- GI50 (COLO 205): > 100 µM (inactive)
- GI50 (RPMI-8226): > 100 µM (inactive)
- GI50 (OVCAR-5): > 100 µM (inactive)
- GI50 (LOX IMVI): > 100 µM (inactive)
- GI50 (RXF 393): > 100 µM (inactive)
- GI50 (UACC-257): > 100 µM (inactive)
- GI50 (M14): > 100 µM (inactive)
- GI50 (A549): > 100 µM (inactive)
- GI50 (MOLT-4): > 100 µM (inactive)
- GI50 (SNB-19): > 100 µM (inactive)
- GI50 (HL-60): > 100 µM (inactive)

SMILES: OC1CCN2Cc3ccccc3N=C12 (stereo not given)
- GI50 (MCF7): > 100 µM (inactive)
- GI50 (786-0): > 100 µM (inactive)
- GI50 (KM12): > 100 µM (inactive)
- GI50 (SK-MEL-2): > 100 µM (inactive)
- GI50 (DU-145): > 100 µM (inactive)
- GI50 (COLO 205): > 100 µM (inactive)
- GI50 (NCI/ADR-RES): > 100 µM (inactive)
- GI50 (Hs-578T): > 100 µM (inactive)
- GI50 (RPMI-8226): > 100 µM (inactive)
- GI50 (OVCAR-5): > 100 µM (inactive)
- GI50 (LOX IMVI): > 100 µM (inactive)
- GI50 (RXF 393): > 100 µM (inactive)
- GI50 (UACC-257): > 100 µM (inactive)
- GI50 (M14): > 100 µM (inactive)
- GI50 (A549): > 100 µM (inactive)
- GI50 (MOLT-4): > 100 µM (inactive)
- GI50 (SNB-19): > 100 µM (inactive)
- GI50 (HL-60): > 100 µM (inactive)

SMILES: CC(C)=CCC[C@]1(C)C=Cc2c(O)c3c(c(CC=C(C)C)c2O1)O[C@]12C(=C[C@@H]4CC1C(C)(C)O[C@@]2(C/C=C(/C)C(=O)O)C4=O)C3=O
- GI50 (MCF7): 0.376 µM (active)
- GI50 (786-0): 0.488 µM (active)
- GI50 (SR): 0.317 µM (active)
- GI50 (KM12): 1.02 µM (active)
- GI50 (SK-MEL-2): 2.02 µM (inactive)
- GI50 (NCI/ADR-RES): 1.92 µM (inactive)
- GI50 (Hs-578T): 0.673 µM (active)
- GI50 (RPMI-8226): 0.368 µM (active)
- GI50 (OVCAR-5): 1.5 µM (inactive)
- GI50 (LOX IMVI): 0.442 µM (active)
- GI50 (RXF 393): 0.5 µM (active)
- GI50 (UACC-257): 2.31 µM (inactive)
- GI50 (M14): 1.57 µM (inactive)
- GI50 (A549): 0.863 µM (active)
- GI50 (MOLT-4): 0.305 µM (active)
- GI50 (SNB-19): 2.12 µM (inactive)
- GI50 (HL-60): 0.285 µM (active)

SMILES: CCOC(=O)c1c(C(F)(F)F)oc2c1ccc1nc3nonc3nc12
- GI50 (786-0): 12.4 µM (inactive)
- GI50 (SR): 3.58 µM (inactive)
- GI50 (KM12): 19.3 µM (inactive)
- GI50 (SK-MEL-2): 19.3 µM (inactive)
- GI50 (COLO 205): 24.2 µM (inactive)
- GI50 (RPMI-8226): 6.07 µM (inactive)
- GI50 (OVCAR-5): 17.2 µM (inactive)
- GI50 (LOX IMVI): 16.2 µM (inactive)
- GI50 (RXF 393): 11.9 µM (inactive)
- GI50 (UACC-257): 13.5 µM (inactive)
- GI50 (M14): 9.14 µM (inactive)
- GI50 (A549): 18 µM (inactive)
- GI50 (MOLT-4): 2.54 µM (inactive)
- GI50 (SNB-19): 18.2 µM (inactive)
- GI50 (HL-60): 4.46 µM (inactive)

SMILES: CC1=CC(=O)/C(=C/NC(=S)NCCc2ccccc2)C(=O)O1
- GI50 (MCF7): > 100 µM (inactive)
- GI50 (786-0): 31 µM (inactive)
- GI50 (KM12): > 100 µM (inactive)
- GI50 (SK-MEL-2): > 100 µM (inactive)
- GI50 (DU-145): > 100 µM (inactive)
- GI50 (T47D): > 100 µM (inactive)
- GI50 (COLO 205): > 100 µM (inactive)
- GI50 (NCI/ADR-RES): > 100 µM (inactive)
- GI50 (OVCAR-5): > 100 µM (inactive)
- GI50 (LOX IMVI): 30.1 µM (inactive)
- GI50 (UACC-257): > 100 µM (inactive)
- GI50 (M14): > 100 µM (inactive)
- GI50 (A549): > 100 µM (inactive)
- GI50 (MOLT-4): > 100 µM (inactive)
- GI50 (SNB-19): > 100 µM (inactive)
- GI50 (HL-60): > 100 µM (inactive)

Source: ChEMBL document CHEMBL1201862, “PubChem BioAssay data set” (2004)
